Values of other authors in patent publication EP4616878A1, “CANNULA FOR RECTAL ADMINISTRATION OF AN ENEMA AND COMPOSITIONS FOR USE THEREWITH” (Cosmo Technologies Ltd., priority 2024, dated 2025).

Key:
nuclear factor-KB (NFκB) = settings: cell line which lacks PXR expression
[1] = target: T1, pregnane X receptor (PXR) (Homo sapiens, UniProt O75469); settings: liver and intestinal cell lines; also downstream targets CYP3A4 and PgP
T1 sequence (O75469 1-434): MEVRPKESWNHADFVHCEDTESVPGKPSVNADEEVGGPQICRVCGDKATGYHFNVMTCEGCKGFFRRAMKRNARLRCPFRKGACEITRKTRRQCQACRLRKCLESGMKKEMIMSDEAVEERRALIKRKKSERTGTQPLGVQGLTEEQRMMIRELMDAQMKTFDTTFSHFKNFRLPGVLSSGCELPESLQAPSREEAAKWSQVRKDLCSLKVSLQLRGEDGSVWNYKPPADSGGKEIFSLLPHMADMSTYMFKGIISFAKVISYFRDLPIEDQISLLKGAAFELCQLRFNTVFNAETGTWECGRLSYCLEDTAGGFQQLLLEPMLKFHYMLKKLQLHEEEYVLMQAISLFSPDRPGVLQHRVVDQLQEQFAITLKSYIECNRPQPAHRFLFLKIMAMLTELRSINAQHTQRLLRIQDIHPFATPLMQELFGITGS

[2] = in vivo

effect on PXR [1]: activate
absorption in the bloodstream [2]: negligible
SMILES: CO[C@H]1/C=C/O[C@@]2(C)Oc3c(C)c(O)c4c(O)c(cc(O)c4c3C2=O)NC(=O)/C(C)=C\C=C\[C@H](C)[C@H](O)[C@@H](C)[C@@H](O)[C@@H](C)[C@H](OC(C)=O)[C@@H]1C [Rifamycin, Rifamycin SV]
effect on NFκB (nuclear factor-KB (NFκB)): directly inhibited
